Patent US20150374646A1, “TREATMENT OF CANCER AND OTHER CONDITIONS USING A TRANSCRIPTION FACTOR MODULATOR” (C & C BIOPHARMA, LLC, priority 2013, published 2015)

Tests used:
[1] = test system: OVCAR-4; assay: Cancer cell line growth inhibition, CellTiter-Glo (Example 3); format: cell-based; details: Homo sapiens, Ovarian, 72 hours, read-out: growth inhibition of various human cancer cell lines
Protocol: (§1) YT30 was tested for growth inhibition against 67 human cancer cell lines derived from diverse tissues including the National Cancer Institute human cancer cell lines (NCI-60). […] Cells in different wells were treated with various concentrations of YT30, YT86, YT88, or YT128. […] Cell viabilities were determined by the CellTiter-Glo Luminescence Cell Viability assay kit (Promega Corporation, Madison, Wis.) according to manufacturer's protocol.

[2] = test system: siHa; assay: as above; format: cell-based; details: Homo sapiens, Cervical, 72 hours, read-out: growth inhibition of various human cancer cell lines
Protocol: as §1

[3] = test system: OVCAR-3; assay: as above; format: cell-based; details: Homo sapiens, Ovarian, 72 hours, read-out: growth inhibition of various human cancer cell lines
Protocol: as §1

[4] = test system: HL60; assay: as above; format: cell-based; details: Homo sapiens, HL-60, Leukemia, 72 hours, read-out: growth inhibition of various human cancer cell lines
Protocol: as §1

[5] = test system: CCRF-CEM; assay: as above; format: cell-based; details: Homo sapiens, Leukemia, 72 hours, read-out: growth inhibition of various human cancer cell lines
Protocol: as §1

[6] = test system: K562; assay: as above; format: cell-based; details: Homo sapiens, Leukemia, 72 hours, read-out: growth inhibition of various human cancer cell lines
Protocol: as §1

[7] = test system: T-47D; assay: as above; format: cell-based; details: Homo sapiens, T47D, Breast, 72 hours, read-out: growth inhibition of various human cancer cell lines
Protocol: as §1

[8] = test system: MCF7; assay: as above; format: cell-based; details: Homo sapiens, Breast, MCF-7, 72 hours, read-out: growth inhibition of various human cancer cell lines
Protocol: as §1

[9] = test system: HeLa; assay: as above; format: cell-based; details: Homo sapiens, Cervical, 72 hours, read-out: growth inhibition of various human cancer cell lines
Protocol: as §1

[10] = test system: UO-31; assay: as above; format: cell-based; details: Homo sapiens, Renal, 72 hours, read-out: growth inhibition of various human cancer cell lines
Protocol: as §1

[11] = test system: MDA-MB231; assay: as above; format: cell-based; details: Homo sapiens; Breast, MDA-MB-231; 72 hours; read-out: growth inhibition of various human cancer cell lines
Protocol: as §1

[12] = test system: Caski; assay: as above; format: cell-based; details: Homo sapiens, Ca-Ski, Cervical, 72 hours, read-out: growth inhibition of various human cancer cell lines
Protocol: as §1

[13] = test system: SF-539; assay: as above; format: cell-based; details: Homo sapiens, CNS, 72 hours, read-out: growth inhibition of various human cancer cell lines
Protocol: as §1

[14] = test system: TK-10; assay: as above; format: cell-based; details: Homo sapiens, Renal, 72 hours, read-out: growth inhibition of various human cancer cell lines
Protocol: as §1

[15] = test system: U251; assay: as above; format: cell-based; details: Homo sapiens, U-251, CNS, 72 hours, read-out: growth inhibition of various human cancer cell lines
Protocol: as §1

[16] = test system: MDA-MB-435; assay: as above; format: cell-based; details: Homo sapiens, Breast, 72 hours, read-out: growth inhibition of various human cancer cell lines
Protocol: as §1

[17] = test system: A549; assay: as above; format: cell-based; details: Homo sapiens, Lung, 72 hours, read-out: growth inhibition of various human cancer cell lines
Protocol: as §1

[18] = test system: SR; assay: as above; format: cell-based; details: Homo sapiens, Leukemia, 72 hours, read-out: growth inhibition of various human cancer cell lines
Protocol: as §1

[19] = test system: MOLT-4; assay: as above; format: cell-based; details: Homo sapiens, Leukemia, 72 hours, read-out: growth inhibition of various human cancer cell lines
Protocol: as §1

[20] = test system: BT-549; assay: as above; format: cell-based; details: Homo sapiens, Breast, 72 hours, read-out: growth inhibition of various human cancer cell lines
Protocol: as §1

[21] = test system: HS 578T; assay: as above; format: cell-based; details: Homo sapiens, Breast, 72 hours, read-out: growth inhibition of various human cancer cell lines
Protocol: as §1

[22] = test system: SN12C; assay: as above; format: cell-based; details: Homo sapiens, Renal, 72 hours, read-out: growth inhibition of various human cancer cell lines
Protocol: as §1

[23] = test system: OVCAR-5; assay: as above; format: cell-based; details: Homo sapiens, Ovarian, 72 hours, read-out: growth inhibition of various human cancer cell lines
Protocol: as §1

[24] = test system: SF-268; assay: as above; format: cell-based; details: Homo sapiens, CNS, 72 hours, read-out: growth inhibition of various human cancer cell lines
Protocol: as §1

[25] = test system: SNB-19; assay: as above; format: cell-based; details: Homo sapiens, CNS, 72 hours, read-out: growth inhibition of various human cancer cell lines
Protocol: as §1

[26] = test system: MDA-MB-468; assay: as above; format: cell-based; details: Homo sapiens, Breast, 72 hours, read-out: growth inhibition of various human cancer cell lines
Protocol: as §1

[27] = test system: SF-295; assay: as above; format: cell-based; details: Homo sapiens, CNS, 72 hours, read-out: growth inhibition of various human cancer cell lines
Protocol: as §1

[28] = test system: A498; assay: as above; format: cell-based; details: Homo sapiens, Renal, 72 hours, read-out: growth inhibition of various human cancer cell lines
Protocol: as §1

[29] = test system: MV4-11 cells; assay: Subcutaneous MV4-11 leukemia tumor growth in NOD/SCID mice (Example 5); format: in vivo; details: 100 mg/kg p.o. × 27 days
Protocol: Female Nonobese Diabetic/Severe Combined Immunodeficiency (NOD/SCID) mice that were 4-6 weeks old were used in the experiment. The mice were fed under specific pathogen free (SPF) conditions. Food and water were available to the mice at will. A suspension of 1×10^7 cells per mouse B-myelomonocytic leukemia MV4-11 cells (0.2 mL) in logarithmic phase were inoculated subcutaneously into the right back of the NOD/SCID nude mice.
The general conditions of the mice and the growth of the transplanted tumor were monitored. […] The control group received an intraperitoneal (IP) injection of 0.2 mL of solvent (20% DMSO, 80% of 20% w/v (2-hydroxypropyl)-β-cyclodextrin made in PBS). […] The high dosage group received an intraperitoneal injection of 50 mg/kg/day of YT30 (0.2 mL in volume) suspended in solvent (20% DMSO, 80% of 20% w/v (2-hydroxypropyl)-β-cyclodextrin made in PBS), while the low dosage group received IP injection of 25 mg/kg/day YT30 (0.2 mL in volume). Frequency of the administration was once per day and the experiment lasted 27 days after treatment started.
The body weights of the mice were recorded prior to the start of treatment and twice every week thereafter. Each mouse of every group was monitored daily for any other symptoms of side effects including change in behavior, activity or posture, areas of redness and swelling, and food and water withdrawal. Caliper measurements of the longest perpendicular tumor diameters were performed every 2 days to estimate the tumor volume; the following formula: 4π/3×(width/2)^2×(length/2) was used to calculate the three-dimensional volume of an ellipse. The tumor inhibition rate was calculated according to tumor volume: Tumor inhibition rate by size (%)=(Tumor volume of the control group−Tumor volume of the treated group)/Tumor volume of the control group×100. The mice were euthanized on the next day after the final injection and the subcutaneous tumor nodules were taken out intact and weighed. The tumor inhibition rate was calculated again according to tumor weight: Tumor inhibition rate by weight (%)=(Tumor weight of the control group−Tumor weight of the treated group)/Tumor weight of the control group×100).

[30] = test system: Nalm-6; assay: cells; details: Homo sapiens, NALM-6, 72 h, read-out: 72 hr growth inhibition (%)
Protocol: (§2) Various human leukemia cells were grown to the logarithmic growth phase and seeded into 24-well plates. […] Treated cells were further incubated for 72 hours and then were examined for cell proliferation. Cell proliferation was determined using the CellTiter-Glo Luminescence Cell Viability assay (Promega Corporation, Madison, Wis.) according to the manufacturer's protocol. The calculated inhibition rate was determined with the following formula: Inhibition rate (%)=(1−Luminescence of experimental group/Luminescence of control group)×100. IC50 is the calculated concentration of a compound needed to inhibit half of the maximum cell growth (equivalent to cell growth in control group) based on the corresponding dose-response curve under the described experimental conditions.
Growth inhibition experiments were performed as previously described.

[31] = test system: K562 cells; assay: Subcutaneous K562 (CML) tumor growth in SCID mice (Example 6); format: in vivo; details: Imatinib 100 mg/kg p.o. × 16 days, SCID mice, K562 tumor
Protocol: Male Severe Combined Immunodeficiency (SCID) mice that were 4-6 weeks old were used in the experiment. The mice were fed under specific pathogen free (SPF) conditions. Food and water were available to the mice at will. A suspension of 8×10^6 chronic myelogenous leukemia K562 cells (0.2 mL) was inoculated subcutaneously into the right back of the SCID mice.
The general conditions of the mice and the growth of the transplanted tumor were monitored. […] The control group received an intraperitoneal injection (IP) of 0.2 mL solvent (20% DMSO, 80% of 20% w/v (2-hydroxypropyl)-β-cyclodextrin made in PBS). […] The YT30 treated groups received either intraperitoneal injection of 50 mg/kg/day of YT30 (0.2 mL in volume) suspended in solvent (20% DMSO, 80% of 20% w/v (2-hydroxypropyl)-β-cyclodextrin made in PBS) or oral gavage of 90 mg/kg/day YT30 in solvent (Cremophor RH40:TW80:PEG400 (2:1:1)). Frequency of the administration was once per day and the experiment lasted 16 days after initiation of the treatment.
The body weights of the mice were recorded prior to the start of treatment and twice every week thereafter. Each mouse of every group was monitored daily for any other symptoms of side effects including change in behavior, activity or posture, areas of redness and swelling, and food and water withdrawal. Caliper measurements of the longest perpendicular tumor diameters were performed every 2 days to estimate the tumor volume; the following formula: 4π/3×(width/2)^2×(length/2) was used to calculate the three-dimensional volume of an ellipse. The tumor inhibition rate was calculated according to tumor volume: Tumor inhibition rate by size (%)=(Tumor volume of the control group−Tumor volume of the treated group)/Tumor volume of the control group×100. The SCID mice were euthanized 2 hours after the final injection and the subcutaneous tumor nodules were taken out intact and weighed. The tumor inhibition rate was calculated again according to tumor weight: Tumor inhibition rate by weight (%)=(Tumor weight of the control group−Tumor weight of the treated group)/Tumor weight of the control group×100.

[32] = test system: NCI/ADR-RES; assay: Cancer cell line growth inhibition, CellTiter-Glo (Example 3); format: cell-based; details: Homo sapiens, Breast, 72 hours, read-out: growth inhibition of various human cancer cell lines
Protocol: as §1

[33] = test system: 786-0; assay: as above; format: cell-based; details: Homo sapiens, Renal, 72 hours, read-out: growth inhibition of various human cancer cell lines
Protocol: as §1

[34] = test system: Nalm-6; assay: Leukemia cell growth inhibition, CellTiter-Glo (Example 1); format: cell-based, human; details: Nalm-6 cells, 4 μM
Protocol: as §2

[35] = test system: HL60; assay: as above; format: cell-based, human; details: HL60 cells, 4 μM
Protocol: as §2

[36] = test system: REH; assay: as above; format: cell-based, human; details: REH cells, 4 μM
Protocol: as §2

| SMILES | IC50 [1] | IC50 [2] | IC50 [3] | IC50 [4] | IC50 [5] | IC50 [6] | IC50 [7] | IC50 [8] | IC50 [9] | IC50 [10] | IC50 [11] | IC50 [12] | IC50 [13] | IC50 [14] | IC50 [15] | IC50 [16] | IC50 [17] | IC50 [18] | IC50 [19] | IC50 [20] | further results |
| --- | --- | --- | --- | --- | --- | --- | --- | --- | --- | --- | --- | --- | --- | --- | --- | --- | --- | --- | --- | --- | --- |
| Nc1ccccc1NC(=O)CCCCCNC(=O)c1cc2ccccc2[nH]1 [YT86] | 14.3 µM | 8.78 µM | 7.2 µM | 4.81 µM | 3.17 µM | 5.64 µM | 12.5 µM | 5.86 µM | 6.74 µM | 7.51 µM | 5.81 µM | 11.3 µM | 7.76 µM | 17.2 µM | 4.47 µM | 8.31 µM | 10.9 µM | 6.4 µM | 3.09 µM | 13.5 µM | IC50 [21]: 8.85 µM; IC50 [22]: 8 µM; IC50 [23]: 5.99 µM; IC50 [24]: 14.9 µM; IC50 [25]: 14.2 µM; IC50 [26]: 7.04 µM; IC50 [27]: 7.41 µM; IC50 [28]: 9.55 µM |
| Cc1ccc(NC(=O)c2ccc(CN3CCN(C)CC3)cc2)cc1Nc1nccc(-c2cccnc2)n1 [Imatinib, imatinib, reference compound] | – | – | – | – | – | – | – | – | – | – | – | – | – | – | – | – | – | – | – | – | Average body weight (g, x ± s) End point [29]: 22.06 ± 1.74 g; Body weight change (%) [29]: −1.0%; Tumor growth Inhibition by size (%) [29]: 52.5%; Tumor growth Inhibition by weight (%) [29]: 41.7%; Tumor size (mm^3) [29]: 1040.51 ± 422.38 mm^3; Tumor weight (g, x ± s) [29]: 1.29 ± 0.42 g; inhibition at 5 µM [30]: 0%; inhibition at 10 µM [30]: 44%; Body weight change [31]: −3.26%; Tumor growth inhibition by size [31]: 43.97%; Tumor growth inhibition by weight [31]: 27.91%; Average body weight, End point ([31]; end point, x ± s): 18.37 ± 0.54 g; Average body weight, Initial ([31]; initial (before treatment), x ± s): 18.99 ± 1.23 g; Tumor size ([31]; x ± s): 1744.05 ± 1049.95 mm^3 |
| Nc1ccccc1NC(=O)CCCCCCNC(=O)c1cc2ccccc2[nH]1 [YT128] | 13.6 µM | 9.7 µM | 6.91 µM | 5.86 µM | 4.24 µM | 5.03 µM | 12.6 µM | 8.52 µM | 6.58 µM | 6.58 µM | 6.75 µM | 10.9 µM | 7.61 µM | 12.1 µM | 5 µM | 9.74 µM | 12.8 µM | 5.96 µM | 5.08 µM | 9.14 µM | IC50 [32]: 14.6 µM; IC50 [21]: 8.39 µM; IC50 [22]: 7.11 µM; IC50 [33]: 9.47 µM; IC50 [23]: 6.87 µM; IC50 [24]: 13.4 µM; IC50 [25]: 13.8 µM; IC50 [26]: 11.2 µM; IC50 [27]: 8.61 µM; IC50 [28]: 7.46 µM |
| Nc1ccccc1NC(=O)Cc1cccc(CC(=O)Nc2ccccc2N)c1 [YT19] | – | – | – | – | – | – | – | – | – | – | – | – | – | – | – | – | – | – | – | – | Growth inhibition (FIG. 1) [34]: failed to inhibit cell growth; Growth inhibition (FIG. 1) [35]: failed to inhibit cell growth; Growth inhibition (FIG. 1) [36]: failed to inhibit cell growth |
